Peptide text beside a SMILES is read from it. * marks the point of attachment. Cbz = O=C(OCc1ccccc1)*; CH2F = FC*
Experiments:
[1] = test system: E1B192-200-specific CD8+ T cells; format: cell-based, mouse; details: for secondary expansion of purified helpless CD8+ T cells (fold expansion of IFN-γ-producing E1B192-200-specific CD8+ T cells): caspase inhibitors 20 μM, 6 days after in vitro restimulation, CD4-depleted mice, FIGS. 1a, 1b
[2] = test system: GP33-41-specific CD8+ T cells; format: cell-based, mouse; details: 6 days

| Molecule | secondary expansion of purified helpless CD8+ T cells (fold expansion of IFN-γ-producing E1B192-200-specific CD8+ T cells) [1] | secondary expansion of helpless LCMV-specific CD8+ T cells [2] | secondary expansion of helpless CD8+ T cells from TRAIL-deficient mice in presence of exogenous TRAIL ([1]; CD4-depleted TRAIL-/- mice, 6 days, FIG. 4b) | secondary expansion of helped CD8+ T cells in presence of exogenous TRAIL ([1]; intact wild type mice, 6 days, FIG. 4a) |
| --- | --- | --- | --- | --- |
| CC(C)C(NC(=O)c1ccc2ccccc2n1)C(=O)NC(CC(=O)O)C(=O)COc1c(F)cccc1F (stereo not drawn) [qVD-OPh, quinoline-Val-Asp-CH2-difluorophenoxy] | restored secondary expansion |  |  |  |
| COC(=O)C[C@H](NC(=O)[C@H](C)NC(=O)[C@@H](NC(=O)OCc1ccccc1)C(C)C)C(=O)CF [zVAD-fmk, benzyloxycarbonyl-Val-Ala-Asp-fluoromethyl ketone] (Cbz-Val-Ala-Asp(OMe)-CH2F) | restored secondary expansion | restored |  |  |
| recombinant TRAIL (protein) PRGGRPQKVAAHITGITRRSNSALIPISKDGKTLGQKIESWESSRKGHSFLNHVLFRNGELVIEQEGLYYIYSQTYFRFQEAEDASKMVSKDKVRTKQLVQYIYKYTSYPDPIVLMKSARNSCWSRDAEYGLYSIYQGGLFELKKNDRIFVSVTNEHLMDLDQEASFFGAFLIN |  |  | failed to do so | completely inhibited secondary expansion |
